In patent US10221138B2, “Biaryl derivatives as GPR120 agonists” (LG CHEM, LTD., priority 2013, dated 2019) one finds EC50 data, which are given here for 41 molecules.

Structures are written as SMILES.

This assay concerns the target T1, hGPR120 (Homo sapiens, UniProt Q5NUL3).
T1 construct: expressed in transfected cells; host or cells: CHO-K1
T1 sequence (Q5NUL3 1-361): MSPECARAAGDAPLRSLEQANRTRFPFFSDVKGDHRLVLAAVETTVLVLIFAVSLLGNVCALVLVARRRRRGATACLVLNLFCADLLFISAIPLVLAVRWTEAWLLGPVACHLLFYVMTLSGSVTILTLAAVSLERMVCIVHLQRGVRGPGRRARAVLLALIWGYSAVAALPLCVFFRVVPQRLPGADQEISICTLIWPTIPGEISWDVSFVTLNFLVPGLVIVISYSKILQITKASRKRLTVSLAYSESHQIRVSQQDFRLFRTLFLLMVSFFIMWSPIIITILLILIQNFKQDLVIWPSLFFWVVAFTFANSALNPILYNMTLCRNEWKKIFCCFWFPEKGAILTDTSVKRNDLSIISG
Nature of the assay: Measurement of activity of GPR120 agonist (cell-based calcium fluorescence assay). The conditions noted are these: CHO-K1 cells expressing Ga16 and hGPR120, Calcium 5 dye fluorescence; activity class; read-out: EC50. The protocol: CHO-K1 cells expressing Ga16 and hGPR120 were dispensed into each well of a 96-well plate (3×10^4 cells/100 μl/well) and then incubated in 5% CO2, 37° C. incubator for 18 hours. Each well was treated with 100 μl of Calcium 5 dye (Molecular Devices) solution including 2% DMSO and then incubated in 5% CO2, 37° C. incubator for 1 hour. Serially diluted GPR120 agonists were prepared to a final concentration of 0.5% DMSO in a 96-well plate.
Fluorescence increased by the serially diluted GPR120 agonists is calculated as a relative percent (%) value based on the fluorescence represented by the treatment of 1% DMSO only. […] The calculation of measurement was carried out by using statistical software (Prizm).
Activity is denoted based on the following criteria: […]
The EC50 is the concentration needed to bring the measured effect to its halfway point. Consider `O=C(O)CCCOc1ccc(-c2cccc(Oc3ccccc3)n2)cc1` [Example 1, 4-[4-(6-phenoxy-2-pyridyl)phenoxy]butyric acid], for which the EC50 fell in the range of 200 to 2000 nM. Turning to `CC(C)Sc1cccc(-c2cc(F)c(OCCCC(=O)O)c(F)c2)n1` [Example 2, 4-[2,6-difluoro-4-(6-isopropylsulfanyl-2-pyridyl)phenoxy]butyric acid], the EC50 is < 200 nM. As for `O=C(O)CCCOc1c(F)cc(-c2cccc(Oc3ccccc3)n2)cc1F` [Example 3, 4-[2,6-difluoro-4-(6-phenoxy-2-pyridyl)phenoxy]butyric acid], the EC50 is < 200 nM. As to `CC(C)Sc1cccc(-c2ccc(OCCCC(=O)O)c(Cl)c2)n1` [Example 4, 4-[2-chloro-4-(6-isopropylsulfanyl-2-pyridyl)phenoxy]butyric acid], the EC50 was 200 to 2000 nM. In the case of `CC(C)Sc1cccc(-c2ccc(OCCCC(=O)O)c(F)c2)n1` [Example 5, 4-[2-fluoro-4-(6-isopropylsulfanyl-2-pyridyl)phenoxy]butyric acid], the EC50 was 200 to 2000 nM. On to `O=C(O)CCCOc1c(F)cc(-c2cccc(SC3CCCC3)n2)cc1F` [Example 6, 4-[4-(6-cyclopentylsulfanyl-2-pyridyl)-2,6-difluoro-phenoxy]butyric acid], for which the EC50 is < 200 nM. As for `COc1cc(-c2cccnc2SC2CCC2)ccc1OCCCC(=O)O` [Example 7, 4-[4-(2-cyclobutylsulfanyl-pyridin-3-yl)-2-methoxy-phenoxy]-butyric acid], the EC50 was in the range of 2000 to 20000 nM. Regarding `CC(C)Sc1cc(-c2cc(F)c(OCCCC(=O)O)c(F)c2)ccn1` [Example 8, 4-[2,6-difluoro-4-(2-isopropylsulfanyl-4-pyridyl)phenoxy]butyric acid], the EC50 is > 20000 nM. As to `Cc1cc(-c2cccnc2SC2CCC2)cc(C)c1OCCCC(=O)O` [Example 10, 4-[4-(2-cyclobutylsulfanyl-pyridin-3-yl)-2,6-dimethyl-phenoxy]-butyric acid], the EC50 is < 200 nM.

Take `O=C(O)CCCOc1c(F)cc(-c2cccc(N3CCCC3)n2)cc1F` [Example 12, 4-[2,6-difluoro-4-(6-pyrrolidin-1-yl-2-pyridyl)phenoxy]butyric acid]: the EC50 is < 200 nM. The value for `CCC(C)Sc1ncccc1-c1cc(F)c(OCCCC(=O)O)c(F)c1` (centres unmarked) [Example 13, 4-[4-(2-sec-butylsulfanyl-pyridin-3-yl)-2,6-difluoro-phenoxy]-butyric acid] was 200 to 2000 nM; that for `O=C(O)CCCOc1ccc(-c2cccc(OC3CCCC3)c2)c(F)c1F` [Example 14, 4-[4-[3-(cyclopentoxy)phenyl]-2,3-difluoro-phenoxy]butyric acid] was 200 to 2000 nM; that for `O=C(O)CCCOc1c(F)cc(-c2cccc(N3CCCCC3)n2)cc1F` [Example 15, 4-[2,6-difluoro-4-[6-(1-piperidyl)-2-pyridyl]phenoxy]butyric acid] was 200 to 2000 nM. Consider `O=C(O)CCCOc1c(F)cc(-c2cccc(Nc3ccccc3)n2)cc1F` [Example 16, 4-[4-(6-anilino-2-pyridyl)-2,6-difluoro-phenoxy]butyric acid], for which the EC50 was in the range of 200 to 2000 nM.

As for `CN(c1ccccc1)c1cccc(-c2cc(F)c(OCCCC(=O)O)c(F)c2)n1` [Example 17, 4-[2,6-difluoro-4-[6-(N-methylanilino)-2-pyridyl]phenoxy]butyric acid], the EC50 is 200 to 2000 nM.

In the case of `O=C(O)CCCOc1c(F)cc(-c2cccc(SC3CCC3)n2)cc1F` [Example 20, 4-[4-(6-cyclobutylsulfanyl-2-pyridyl)-2,6-difluoro-phenoxy]butyric acid], the EC50 was < 200 nM. The value for `CCCSc1cccc(-c2cc(F)c(OCCCC(=O)O)c(F)c2)n1` [Example 21, 4-[2,6-difluoro-4-(6-propylsulfanyl-2-pyridyl)phenoxy]butyric acid] was < 200 nM; that for `CCCOc1cccc(-c2cc(F)c(OCCCC(=O)O)c(F)c2)n1` [Example 23, 4-[2,6-difluoro-4-(6-propoxy-2-pyridyl)phenoxy]butyric acid] was < 200 nM. `O=C(O)CCCOc1c(F)cc(-c2cccc(OCC3CC3)n2)cc1F` [Example 24, 4-[4-[6-(cyclopropylmethoxy)-2-pyridyl]-2,6-difluoro-phenoxy]butyric acid]: the EC50 is < 200 nM.

As to `O=C(O)CCCOc1c(F)cc(-c2cccc(OC3CCC3)n2)cc1F` [Example 25, 4-[4-[6-(cyclobutoxy)-2-pyridyl]-2,6-difluoro-phenoxy]butyric acid], the EC50 was < 200 nM. On to `Cc1cc(-c2cccc(OC3CCC3)n2)ccc1OCCCC(=O)O` [Example 26, 4-[4-[6-(cyclobutoxy)-2-pyridyl]-2-methyl-phenoxy]butyric acid], for which the EC50 was < 200 nM. `O=C(O)CCCOc1ccc(-c2cccc(OC3CCC3)n2)cc1C(F)(F)F` [Example 27, 4-[4-[6-(cyclobutoxy)-2-pyridyl]-2-(trifluoromethyl)phenoxy]butyric acid]: the EC50 was < 200 nM. With `CC(CCC(=O)O)Oc1c(F)cc(-c2cccnc2SC2CCC2)cc1F` (centres unmarked) [Example 28, 4-[4-(2-cyclobutylsulfanyl-3-pyridyl)-2,6-difluoro-phenoxy]pentanoic acid], the EC50 is < 200 nM. For the molecule `CC(CCC(=O)O)Oc1c(F)cc(-c2cccc(OC3CCC3)n2)cc1F` (centres unmarked) [Example 29, 4-[4-[6-(cyclobutoxy)-2-pyridyl]-2,6-difluoro-phenoxy]pentanoic acid], the EC50 was < 200 nM.

For the molecule `CC(CCC(=O)O)Oc1ccc(-c2cccnc2SC2CCC2)cn1` (centres unmarked) [Example 30, 4-[[5-(2-cyclobutylsulfanyl-3-pyridyl)-2-pyridyl]oxy]pentanoic acid], the EC50 was > 20000 nM. The value for `CC(C)CCSc1ncccc1-c1cc(F)c(OCCCC(=O)O)c(F)c1` [Example 31, 4-{2,6-difluoro-4-[2-(3-methyl-butylsulfanyl)-pyridin-3-yl]-phenoxy}-butyric acid] was 200 to 2000 nM.

With `O=C(O)CCCOc1c(F)cc(-c2cccnc2OCCF)cc1F` [Example 32, 4-{2,6-difluoro-4-[2-(2-fluoro-ethoxy)-pyridin-3-yl]-phenoxy}-butyric acid], the EC50 was > 20000 nM. As for `O=C(O)CC1(COc2c(F)cc(-c3cccnc3SC3CCC3)cc2F)CC1` [Example 33, 2-[1-[[4-(2-cyclobutylsulfanyl-3-pyridyl)-2,6-difluoro-phenoxy]methyl]cyclopropyl]acetic acid], the EC50 lay within 200 to 2000 nM. As for `O=C(O)CCCOc1ccc(-c2cccc(OC3CCC3)c2)nc1` [Example 35, 4-[[6-[3-(cyclobutoxy)phenyl]-3-pyridyl]oxy]butyric acid], the EC50 lay in the range of 200 to 2000 nM.

Regarding `O=C(O)CCCOc1ccc(-c2cccc(OC3CCCC3)c2)nc1` [Example 36, 4-[[6-[3-(cyclopentoxy)phenyl]-3-pyridyl]oxy]butyric acid], the EC50 was 200 to 2000 nM. Regarding `O=C(O)CCCOc1ccc(-c2ccccc2Oc2ccccc2)cc1` [Example 37, 4-(2′-phenoxy-biphenyl-4-yloxy)-butyric acid], the EC50 is < 200 nM. Consider `CC(C)Sc1ncccc1-c1ccc(OCCCC(=O)O)cc1` [Example 38, 4-[4-(2-isopropylsulfanyl-pyridin-3-yl)-phenoxy]-butyric acid], for which the EC50 is 200 to 2000 nM. For `O=C(O)CCCOc1c(F)cc(-c2ccccc2Oc2ccccc2)cc1F` [Example 39, 4-(3,5-difluoro-2′-phenoxy-biphenyl-4-yloxy)-butyric acid], the EC50 is < 200 nM. `CC(C)Sc1ncccc1-c1cc(F)c(OCCCC(=O)O)c(F)c1` [Example 41, 4-[2,6-difluoro-4-(2-isopropylsulfanyl-pyridin-3-yl)-phenoxy]-butyric acid]: the EC50 fell in the range of 200 to 2000 nM. With `CC(C)Oc1ncccc1-c1cc(F)c(OCCCC(=O)O)c(F)c1` [Example 43, 4-[2,6-difluoro-4-(2-isopropoxy-pyridin-3-yl)-phenoxy]-butyric acid], the EC50 was 200 to 2000 nM. In the case of `O=C(O)CCCOc1c(F)cc(-c2cccnc2OC2CCCC2)cc1F` [Example 44, 4-[4-(2-cyclopentyloxy-pyridin-3-yl)-2,6-difluoro-phenoxy]-butyric acid], the EC50 is < 200 nM.

For the molecule `O=C(O)CCCOc1c(F)cc(-c2cccnc2OCC2CC2)cc1F` [Example 46, 4-[4-(2-cyclopropylmethoxy-pyridin-3-yl)-2,6-difluoro-phenoxy]-butyric acid], the EC50 lay in the range of 200 to 2000 nM. The value for `O=C(O)CCCOc1c(F)cc(-c2cccnc2SCC2CC2)cc1F` [Example 47, 4-[4-(2-cyclopropylmethylsulfanyl-pyridin-3-yl)-2,6-difluoro-phenoxy]-butyric acid] was < 200 nM; that for `O=C(O)CCCOc1ccc(-c2cccnc2SC2CCC2)cc1` [Example 48, 4-[4-(2-cyclobutylsulfanyl-pyridin-3-yl)-phenoxy]-butyric acid] was < 200 nM. On to `O=C(O)CCCOc1ccc(-c2cccnc2SCC2CC2)cc1` [Example 49, 4-[4-(2-cyclopropylmethylsulfanyl-pyridin-3-yl)-phenoxy]-butyric acid], for which the EC50 fell in the range of 200 to 2000 nM. `CCCSc1ncccc1-c1ccc(OCCCC(=O)O)cc1` [Example 51, 4-[4-(2-propylsulfanyl-pyridin-3-yl)-phenoxy]-butyric acid]: the EC50 was < 200 nM.
